From patent US10857105B2, “Compounds and compositions for intracellular delivery of therapeutic agents” (ModernaTX, Inc., priority 2017, dated 2020)
“Also recorded” adds a separate entry of the source.

Legend:
in vivo = settings: male, Sprague-Dawley, rat, iv
Description: (§1) LNP administration to animals: mRNA-LNPs diluted in phosphate buffered saline (PBS) were injected intravenously (5 mL/kg) into female CD-1 female mice (18 to 22 g in body weight) and male Sprague-Dawley rats (225-250 g in body weight) via the tail vein using 29 g, 3/10 cc insulin syringes (mice) or 27 g, 1 mL syringes (rats) after gentle warming of the animals using a heat lamp for 3 minutes.
Protein was precipitated and analyzed against calibration standards prepared in matching blank. Chromatographic separation and quantification was accomplished with a LC-MS/MS System. Samples were injected and separated via HPLC A triple-quadrupole MS/MS system operated in positive ion mode was used for signal detection.
PK analysis of the individual plasma and tissue concentration data was performed using anon-validated program (Phoenix WinNonlin®, Version 7.0 (Pharsight Corp., Mountain View, Calif.)). Kinetic parameters were estimated using a noncompartmental model (Plasma (200-202), Uniform weighting, extravascular dosing with sparse sampling). The AUG was calculated using the linear trapezoidal rule. All derived parameters are reported to 3 significant figures with the exception of time to peak concentration (Tmax) and halflife (HL), which are reported to one decimal place. No further statistical analyses were performed on the plasma concentration data or derived pharacokinetic parameters.

CD-1 mouse liver = assay: Lipid remaining in mouse liver tissue 24 h post dose (LC-MS/MS); assay type: in vivo; settings: CD-1 mouse liver 24 h after 0.5 mg/kg bolus dose mRNA, n = 5 ± S.D.
Description: as §1
Quantification of Lipid by LC-MS/MS: Liver samples were homogenized following addition of 19 eq. […] Protein was precipitated and analyzed against calibration standards prepared in matching blank. Chromatographic separation and quantification was accomplished with a LC-MS/MS System. Samples were injected and separated via HPLC A triple-quadrupole MS/MS system operated in positive ion mode was used for signal detection.

hEPO mRNA = assay: hEPO expression and cytokine induction after intravenous administration to mice; assay type: in vivo; settings: for hEPO expression, 3 h / Cytokine expression, IL-6 (6 h) / Cytokine expression, IP-10 (6 h) / hEPO expression, 6 h / hEPO expression, 24 h: intravenous 0.5 mpk
Description: FIG. 17 is a graph showing the hEPO mRNA expression in CD1-mice measured 3 h (left block), 6 h (middle block) and 24 h (right block) after intravenous administration of various nanoparticle compositions. Numbers 1-13 refer to compositions containing an mRNA expressing hEPO and the following: 1: Compound 147, 2: Compound 184, 3: Compound 232; 4: Compound 189; 5: Compound 200; 6: Compound 233; 7: Compound 234; 8: Compound 235; 9: Compound 237; 10: Compound 239; 11: Compound 243; 12: MC3; 13: PBS. […]
Sample formulations of nanoparticle compositions including different lipids are generally first evaluated according to Luc expression in vivo. The activity of several such compositions was further evaluated using an mRNA encoding hEPO. Nanoparticle compositions including Compounds 6, 18, 25, 30, 108-112, 60, and 122, or MC3 were prepared according to Example 2.
The expression of hEPO and cytokine induction in mice intravenously administered a nanoparticle composition at a dose of 0.5 mpk were measured at 3, 6, and 24 hours. […] The expression of hEPO in mice intramuscularly administered a nanoparticle composition from Table 1B at a dose of 0.01 mpk were measured at 3, 6, and 24 hours. […] (see
Table 12 compares the nanoparticle compositions including compounds according to Formula (I), (IA), (IB), (II), (IIa), (IIb), (IIc), (IId), (IIe), (IIf), (IIg), or (III) to the compositions including MC3 on the basis of expression and flux levels. […] Thus, these lipids may be useful in nanoparticle composition therapeutics.

mouse tissues = assay: Lipid clearance from mouse tissues after weekly dosing 0.05 mg/kg mRNA on day 1, 8 and 15; assay type: in vivo
Description: Repeat dosing of mRNA in an MC3-based LNP for a therapeutic indication would be expected to lead to accumulation of MC3 in tissues, based on the measured half-life. Therefore it was investigated whether the favorable single dose pharmacokinetics of compound 18 were maintained with weekly dosing. Clearance of MC3 and compound 18 from multiple mouse tissues was measured after dosing 0.05 mg/kg mRNA on day 1, 8 and 15 (FIG. 30A). Following dosing with MC3 LNPs, lipid was detected in liver, spleen, plasma, kidney, heart and lung; with liver and spleen containing the largest concentrations (FIG. 30A, for full panel of tissues see FIG. 35A). […] Compound 18 was also detected in plasma, lung, and kidney, but not in heart (FIG. 35A).

CD-1 mice = assay: Luciferase expression after intravenous delivery of luciferase mRNA LNPs (bioluminescent imaging); assay type: in vivo; settings: intravenous 0.5 mg/kg mRNA dose
Description: Whole body and ex vivo organ bioluminescent imaging of mice: CD-1 mice were injected 15 minutes prior to the imaging timepoint intraperitoneally (IP) with 200 μL Xenolight D-luciferin K+ salt, diluted in PBS just prior to use to a concentration of 15 mg/mL. Ex vivo imaging of organs was completed, within 25 minutes of luciferin administration. All images were quantified by region of interest for total flux.
[…] […] (See Semple, S.C. et al., Nature Biotech. 2010. 28, 172-176, Jayaraman, M., et al. Angew. Chem. Int. Ed. 2012, 51, 8529-8533, the entire contents of each of which are incorporated by reference herein in their entireties). To evaluate the efficiency of the new amino lipids, LNPs using the novel compounds were tested in vivo in mice using luciferase mRNA as a reporter. An MC3 LNP was included as a control in each experiment, enabling the comparison of LNPs from experiment to experiment. Measured luciferase activity also enabled the determination of protein bio-distribution.

IP-10 = assay: Cytokine induction (IP-10) in rats after intravenous administration; assay type: in vivo, rat; settings: for IP-10 induction: rat, 48 hours
Description: The expression of hEPO and cytokine induction in rats intravenously administered a nanoparticle composition at a dose of 2.0 mpk was measured at 6 h.
Table 19A summarizes the hEPO expression, IP-10 induction, liver and spleen levels, and alanine aminotransferase (ALT) and aspartate aminotransferase (AST) measured upon intravenous administration of formulations including Compounds 48, 49, and 50 to rat at 0.2 and 2 mpk and hEPO mRNA. hEPO concentrations were measured 6 hours after administration, while cytokine induction and liver and spleen levels were measured 48 hours after administration. hEPO and IP-10 concentrations are presented in pg/ml, while liver levels are provided in ng/g. ALT and AST levels are presented in international units.

sC5b-9 = assay: Complement activation: sC5b-9 levels in human cells contacted in vitro with nanoparticle compositions; assay type: cell-based
Description: Complement activation assists in the clearance of pathogens from an organism. As it is undesirable that a subject's body recognize a nanoparticle composition as a foreign invader, low complement system activation upon administration of such a composition is preferred. The complex sC5b-9 is a marker for the activation of the complement system. Thus, human cells were contacted in vitro with nanoparticle compositions according to Table 1A and were evaluated for sC5b-9 levels.

Row | SMILES | half-life (in vivo) [h] | % dose remaining Mouse liver tissue, 24 h (CD-1 mouse liver) | hEPO expression, 3 h (hEPO mRNA; mice) [pg/mL] | Cytokine expression, IL-6 (6 h) (hEPO mRNA; mice, 6 h) [pg/mL] | Cytokine expression, IP-10 (6 h) (hEPO mRNA; mice, 6 h) [pg/mL] | hEPO expression, 6 h (hEPO mRNA; mice, 6 h) [pg/mL] | hEPO expression, 24 h (hEPO mRNA; mice) [pg/mL] | hEPO concentrations compared with MC3 formulations (hEPO mRNA; mice, intravenous, 0.5 mpk, 3, 6 and 24 hours) | lipid levels in tissues on weekly dosing (mouse tissues) | luciferase activity/expression compared to MC3 LNP control (words) (CD-1 mice) | luciferase activity/expression compared to MC3 LNP control (words) (CD-1 mice; 0.5 mg/kg) | IP-10 induction (IP-10; intravenous 0.2 mpk) [pg/mL] | IP-10 induction (IP-10; intravenous 2 mpk) [pg/mL] | IP-10 (IP-10; rats, intravenous 2.0 mpk, hEPO nanoparticle compositions, 6 hours) [pg/mL] | Average hEPO concentration (pg/ml, 6 h) (hEPO mRNA; 6 h) [pg/mL] | Fold increase in hEPO concentration relative to MC3 (hEPO mRNA; Table 12, 6 h) | Fold increase in sC5b-9 levels versus saline (sC5b-9)
1 | CCCCCCCCCOC(=O)CCCCCCCN(CCO)CCCCCCCC(=O)OC(CCCCCCCC)CCCCCCCC [Compound 18, Heptadecan-9-yl 8-((2-hydroxyethyl)(8-(nonyloxy)-8-oxooctyl)amino)octanoate] | 5.8 | no lipid detected at 24 h | 3e+06 | 10.16 | 299.93 | 3.38e+06 | 1.8e+06 | higher hEPO concentrations than MC3 formulations at each time point | significantly lower levels than MC3 |  |  |  |  |  |  |  | 
2 | CCCCCCCCCCCOC(=O)CCCCCN(CCO)CCCCCCCC(=O)OC(CCCCCCCC)CCCCCCCC [Compound 25, Heptadecan-9-yl 8-((2-hydroxyethyl)(6-oxo-6-(undecyloxy)hexyl)amino)octanoate] |  |  |  |  |  |  |  |  |  | higher expression compared to MC3 |  |  |  |  |  |  | 
3 | CCCCCCCCCOC(=O)CCCN(CCO)CCCCCCCC(=O)OC(CCCCCCCC)CCCCCCCC [Compound 26, Heptadecan-9-yl 8-((2-hydroxyethyl)(4-(nonyloxy)-4-oxobutyl)amino) octanoate] |  |  |  |  |  |  |  |  |  |  | higher expression compared to MC3; also recorded: highest luciferase activity of the series |  |  |  |  |  | 
4 | CCCCCC=CCC=CCCCCCCCCC(CCCCCCCCC=CCC=CCCCCC)OC(=O)CCCN(C)C (stereo not drawn) [MC3, heptatriaconta-6,9,28,31-tetraen-19-yl 4-(dimethylamino)butanoate, reference compound] |  | 71 ± 27% | 1.57e+06 | 19.85 | 117.94 | 1.83e+06 | 810000 |  | Accumulation of MC3 was observed after each dose |  |  | 2 | 596 | 688.3 | 1.83e+06 | 1 | 0.73
